Test results taken from ChEMBL document CHEMBL3792337, “Cardiac Glycosides from the Seeds of Thevetia peruviana” (J Nat Prod, 2016).

What was measured:
[1] = Cytotoxicity against human P15 cells after 48 hrs by MTT assay; type: functional, cell-based; details: P15, 48 h
SW1990 = test: Cytotoxicity against human SW1990 cells after 48 hrs by MTT assay; type: functional, cell-based; details: SW1990, 48 h
[2] = Cytotoxicity against human LO2 cells after 48 hrs by MTT assay; type: cell-based; details: L02, 48 h
[3] = Cytotoxicity against human MGC803 cells after 48 hrs by MTT assay; type: functional, cell-based; details: MGC-803, 48 h

SMILES	IC50 [1]	IC50 (SW1990)	IC50 [2]	IC50 [3]
CO[C@H]1[C@@H](O)[C@H](O[C@H]2CC[C@@]3(C)[C@H](CC[C@@H]4[C@@H]3CC[C@]3(C)[C@@H](C5=CC(=O)OC5)CC[C@]43O)C2)O[C@@H](C)[C@@H]1O[C@H]1O[C@@H](CO[C@@H]2O[C@H](CO)[C@@H](O)[C@H](O)[C@H]2O)[C@H](O)[C@@H](O)[C@@H]1O	6.02 µM	7.28 µM	> 10 µM	1.93 µM
CO[C@@H]1[C@@H](O)[C@@H](O[C@H]2CC[C@@]3(C(=O)O)[C@H](CC[C@@H]4[C@@H]3CC[C@]3(C)[C@@H](C5=CC(=O)OC5)CC[C@]43O)C2)O[C@H](C)[C@H]1O[C@@H]1O[C@H](CO)[C@@H](O)[C@H](O)[C@H]1O	> 10 µM	> 10 µM	> 10 µM	> 10 µM
CO[C@H]1[C@H](O)[C@H](O[C@H]2CC[C@@]3(C(=O)O)[C@H](CC[C@@H]4[C@@H]3CC[C@]3(C)[C@@H](C5=CC(=O)OC5)CC[C@]43O)C2)O[C@@H](C)[C@@H]1O	> 10 µM	> 10 µM	> 10 µM	3.93 µM
CO[C@@H]1[C@@H](O)[C@@H](O[C@@H]2CC[C@]3(C=O)[C@@H](CC[C@H]4[C@H]3CC[C@@]3(C)[C@H](C5=CC(=O)OC5)CC[C@@]43O)C2)O[C@H](C)[C@H]1O[C@@H]1O[C@H](CO)[C@@H](O)[C@H](O)[C@H]1O	1.46 µM	0.64 µM	> 10 µM	5.32 µM
CO[C@H]1[C@H](OC(C)=O)[C@H](O[C@@H]2CC[C@]3(C=O)[C@@H](CC[C@H]4[C@H]3CC[C@@]3(C)[C@H](C5=CC(=O)OC5)CC[C@@]43O)C2)O[C@@H](C)[C@@H]1O[C@H]1O[C@@H](CO[C@@H]2O[C@H](CO)[C@@H](O)[C@H](O)[C@H]2O)[C@H](O)[C@@H](O)[C@@H]1O	> 10 µM	> 10 µM	> 10 µM	9.53 µM
CO[C@H]1[C@H](O)[C@H](O[C@H]2CC[C@@]3(OO)[C@H](CC[C@@H]4[C@@H]3CC[C@]3(C)[C@@H](C5=CC(=O)OC5)CC[C@]43O)C2)O[C@@H](C)[C@@H]1O[C@@H]1O[C@H](CO[C@@H]2O[C@H](CO)[C@@H](O)[C@H](O)[C@H]2O)[C@@H](O)[C@H](O)[C@H]1O	> 10 µM	3.62 µM	> 10 µM	> 10 µM
CO[C@H]1[C@@H](O)[C@H](O[C@H]2CC[C@@]3(C)[C@H](CC[C@@H]4[C@@H]3CC[C@]3(C)[C@@H](C5=CC(=O)OC5)CC[C@]43O)C2)O[C@@H](C)[C@@H]1O[C@H]1O[C@@H](CO)[C@H](O)[C@@H](O)[C@@H]1O	1.5 µM	1.69 µM	> 10 µM	> 10 µM
CO[C@H]1[C@H](OC(C)=O)[C@H](O[C@@H]2CC[C@]3(C=O)[C@@H](CC[C@H]4[C@H]3CC[C@@]3(C)[C@H](C5=CC(=O)OC5)CC[C@@]43O)C2)O[C@@H](C)[C@@H]1O[C@H]1O[C@@H](CO)[C@H](O)[C@@H](O)[C@@H]1O	0.59 µM	0.97 µM	> 10 µM	1.23 µM
CO[C@@H]1[C@@H](O)[C@@H](O[C@@H]2CC[C@]3(OO)[C@@H](CC[C@H]4[C@H]3CC[C@@]3(C)[C@H](C5=CC(=O)OC5)CC[C@@]43O)C2)O[C@H](C)[C@H]1O[C@@H]1O[C@H](CO)[C@@H](O)[C@H](O)[C@H]1O	7.29 µM	> 10 µM	> 10 µM	> 10 µM
CO[C@H]1[C@H](OC(C)=O)[C@H](O[C@H]2CC[C@@]3(C)[C@H](CC[C@@H]4[C@@H]3CC[C@]3(C)[C@@H](C5=CC(=O)OC5)CC[C@]43O)C2)O[C@@H](C)[C@@H]1O[C@H]1O[C@@H](CO)[C@H](O)[C@@H](O)[C@@H]1O	2.84 µM	1.84 µM	> 10 µM	3.21 µM
CO[C@H]1[C@H](O)[C@H](O[C@H]2CC[C@@]3(C)[C@@H](CC[C@@H]4[C@@H]3CC[C@]3(C)[C@@H](C5=CC(=O)OC5)CC[C@]43O)C2)O[C@@H](C)[C@@H]1O[C@H]1O[C@@H](CO)[C@H](O)[C@@H](O)[C@@H]1O	2.68 µM	4.54 µM	> 10 µM	3.42 µM
CO[C@H]1[C@H](OC(C)=O)[C@H](O[C@H]2CC[C@@]3(C)[C@H](CC[C@@H]4[C@@H]3CC[C@]3(C)[C@@H](C5=CC(=O)OC5)CC[C@]43O)C2)O[C@@H](C)[C@@H]1O[C@H]1O[C@@H](CO[C@@H]2O[C@H](CO)[C@@H](O)[C@H](O)[C@H]2O)[C@H](O)[C@@H](O)[C@@H]1O	4.75 µM	5.82 µM	> 10 µM	7.04 µM
CO[C@@H]1[C@@H](O)[C@@H](O[C@@H]2CC[C@]3(CO)[C@@H](CC[C@H]4[C@H]3CC[C@@]3(C)[C@H](C5=CC(=O)OC5)CC[C@@]43O)C2)O[C@H](C)[C@H]1O[C@@H]1O[C@H](CO[C@H]2O[C@@H](CO)[C@H](O)[C@@H](O)[C@@H]2O)[C@@H](O)[C@H](O)[C@H]1O	10 µM	7.7 µM	> 10 µM	9.52 µM
CO[C@H]1[C@H](OC(C)=O)[C@H](O[C@H]2CC[C@@]3(C)[C@@H](CC[C@@H]4[C@@H]3CC[C@]3(C)[C@@H](C5=CC(=O)OC5)CC[C@]43O)C2)O[C@@H](C)[C@@H]1O[C@H]1O[C@@H](CO[C@@H]2O[C@H](CO)[C@@H](O)[C@H](O)[C@H]2O)[C@H](O)[C@@H](O)[C@@H]1O	> 10 µM	> 10 µM	> 10 µM	10 µM
CO[C@H]1[C@H](O)[C@H](O[C@H]2CC[C@@]3(C)[C@H](CC[C@@H]4[C@@H]3CC[C@]3(C)[C@@H](C5=CC(=O)OC5)CC[C@]43O)C2)O[C@@H](C)[C@@H]1O[C@H]1O[C@@H](CO[C@@H]2O[C@H](CO)[C@@H](O)[C@H](O)[C@H]2O)[C@H](O)[C@@H](O)[C@@H]1O	3.97 µM	4.56 µM	> 10 µM	> 10 µM
O=c1[nH]cc(F)c(=O)[nH]1 [FLUOROURACIL]	89.2 µM	126 µM	> 10 µM	68.3 µM
CO[C@H]1[C@H](O)[C@H](O[C@H]2CC[C@@]3(O)[C@H](CC[C@@H]4[C@@H]3CC[C@]3(C)[C@@H](C5=CC(=O)OC5)CC[C@]43O)C2)O[C@@H](C)[C@@H]1O[C@@H]1O[C@H](CO[C@@H]2O[C@H](CO)[C@@H](O)[C@H](O)[C@H]2O)[C@@H](O)[C@H](O)[C@H]1O	> 10 µM	> 10 µM	> 10 µM	> 10 µM
CO[C@H]1[C@H](O)[C@H](O[C@H]2CC[C@H]3[C@H](CC[C@@H]4[C@@H]3CC[C@]3(C)[C@@H](C5=CC(=O)OC5)CC[C@]43O)C2)O[C@@H](C)[C@@H]1O[C@@H]1O[C@H](CO[C@@H]2O[C@H](CO)[C@@H](O)[C@H](O)[C@H]2O)[C@@H](O)[C@H](O)[C@H]1O	> 10 µM	3.13 µM	> 10 µM	8.18 µM
